From ChEMBL document CHEMBL1667814 (Bioorg Med Chem, 2011)

Tests used:
[1] = biological target: Acetylcholinesterase (Electrophorus electricus, UniProt O42275)
Description: Inhibition of electric eel AChE by Ellman's method

[2] = biological target: Cholinesterase (Equus caballus, UniProt P81908)
Chain of Cholinesterase (P81908 whole entry): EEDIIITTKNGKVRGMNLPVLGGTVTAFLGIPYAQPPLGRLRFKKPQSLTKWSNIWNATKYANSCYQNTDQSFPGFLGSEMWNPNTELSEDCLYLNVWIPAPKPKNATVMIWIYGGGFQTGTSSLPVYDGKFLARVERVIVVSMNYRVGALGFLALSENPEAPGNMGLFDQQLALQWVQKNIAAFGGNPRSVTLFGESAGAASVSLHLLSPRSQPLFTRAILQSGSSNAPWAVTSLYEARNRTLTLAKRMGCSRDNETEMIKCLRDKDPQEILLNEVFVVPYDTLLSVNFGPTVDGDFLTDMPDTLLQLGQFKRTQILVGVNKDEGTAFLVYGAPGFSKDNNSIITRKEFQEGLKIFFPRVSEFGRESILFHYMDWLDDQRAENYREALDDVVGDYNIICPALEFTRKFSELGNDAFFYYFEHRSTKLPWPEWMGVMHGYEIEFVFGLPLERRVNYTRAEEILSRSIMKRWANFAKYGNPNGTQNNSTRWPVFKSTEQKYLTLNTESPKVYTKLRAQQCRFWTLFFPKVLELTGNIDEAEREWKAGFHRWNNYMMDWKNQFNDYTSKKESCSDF
Description: Inhibition of equine serum BChE by Ellman's method

Chain of Acetylcholinesterase (O42275 whole entry): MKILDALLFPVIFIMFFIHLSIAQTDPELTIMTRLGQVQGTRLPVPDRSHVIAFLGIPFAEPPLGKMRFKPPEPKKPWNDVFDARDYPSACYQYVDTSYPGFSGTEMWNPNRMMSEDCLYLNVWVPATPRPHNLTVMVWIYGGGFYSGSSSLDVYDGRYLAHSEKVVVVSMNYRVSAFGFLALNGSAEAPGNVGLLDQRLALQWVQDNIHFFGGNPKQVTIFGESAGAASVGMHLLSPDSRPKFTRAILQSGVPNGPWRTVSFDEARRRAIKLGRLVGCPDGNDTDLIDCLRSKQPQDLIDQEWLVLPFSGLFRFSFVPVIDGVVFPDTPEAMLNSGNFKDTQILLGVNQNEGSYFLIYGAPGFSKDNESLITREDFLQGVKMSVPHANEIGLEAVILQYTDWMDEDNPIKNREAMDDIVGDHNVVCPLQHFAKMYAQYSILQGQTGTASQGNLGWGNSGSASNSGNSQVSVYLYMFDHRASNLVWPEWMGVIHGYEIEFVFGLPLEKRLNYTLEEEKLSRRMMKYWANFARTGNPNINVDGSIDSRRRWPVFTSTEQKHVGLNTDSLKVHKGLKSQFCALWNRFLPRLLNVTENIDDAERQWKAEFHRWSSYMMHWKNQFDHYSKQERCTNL

Compound | IC50 ([1]; read-out: IC50) [nM] | IC50 [2] [nM] | IC50 ([1]; read-out: pIC50 (converted)) [nM]
CC(=O)N(CCCN=c1c2ccccc2nc2n1CCC2)CCC/N=c1\c2ccccc2nc2n1CCC2 | 331 | 267 | 
CN(CCCN=c1c2ccccc2nc2n1CCC2)CCC/N=c1\c2ccccc2nc2n1CCC2 | 541 | 547 | 
CN(CCCCN=c1c2ccccc2nc2n1CCC2)CCCN=c1c2ccccc2nc2n1CCC2 | 561 | 81.3 | 
c1ccc2c(=NCCCCCCC/N=c3\c4ccccc4nc4n3CCCCCC4)n3c(nc2c1)CCCCCC3 | 65 | 27 | 
CC(C)CCC(=O)N(CCCCN=c1c2ccccc2nc2n1CCCCCC2)CCCN=c1c2ccccc2nc2n1CCCCCC2 | 792 | 3 | 
CC(C)(C)C(=O)N(CCCCN=c1c2ccccc2nc2n1CCCCCC2)CCCN=c1c2ccccc2nc2n1CCCCCC2 | 536 | 25.5 | 53.6
CC(=O)N(CCCCN=c1c2ccccc2nc2n1CCCCCC2)CCCN=c1c2ccccc2nc2n1CCCCCC2 | 177 | 43.1 | 
CC(C)CC(=O)N(CCCCN=c1c2ccccc2nc2n1CCCCCC2)CCCN=c1c2ccccc2nc2n1CCCCCC2 | 621 | 8.1 | 
CN(CCCCN=c1c2ccccc2nc2n1CCCCCC2)CCCN=c1c2ccccc2nc2n1CCCCCC2 | 606 | 51.4 | 
c1ccc2c(=NCCCCCCCCN=c3c4ccccc4nc4n3CCCCCC4)n3c(nc2c1)CCCCCC3 | 14400 | 76 | 
CCC(=O)N(CCCCN=c1c2ccccc2nc2n1CCCCCC2)CCCN=c1c2ccccc2nc2n1CCCCCC2 | 289 | 46.3 | 
c1ccc(C/N=c2/c3ccccc3nc3n2CCC3)cc1 | 13900 | 1900 | 
CC(=O)N(CCCCN=c1c2ccccc2nc2n1CCC2)CCCN=c1c2ccccc2nc2n1CCC2 | 20.9 | 4 | 
CCC(=O)N(CCCCN=c1c2ccccc2nc2n1CCC2)CCCN=c1c2ccccc2nc2n1CCC2 | 18 | 5.9 | 
C=C(C)C(=O)N(CCCCN=c1c2ccccc2nc2n1CCCCCC2)CCCN=c1c2ccccc2nc2n1CCCCCC2 | 153 | 37.7 | 
C=C(C)C(=O)N(CCCCN=c1c2ccccc2nc2n1CCC2)CCCN=c1c2ccccc2nc2n1CCC2 | 6.7 | 10.6 | 
c1ccc(C/N=c2/c3ccccc3nc3n2CCCCCC3)cc1 | > 500000 | 1100 | 
CC(=O)N(CCCN=c1c2ccccc2nc2n1CCCCCC2)CCC/N=c1\c2ccccc2nc2n1CCCCCC2 | 49 | 72.7 | 
c1ccc2c(=NCCCCCCCCN=c3c4ccccc4nc4n3CCC4)n3c(nc2c1)CCC3 | 58 | 4.8 | 
CN(CCCN=c1c2ccccc2nc2n1CCCCCC2)CCC/N=c1\c2ccccc2nc2n1CCCCCC2 | 203 | 197 | 
c1ccc2/c(=N\CCCCCCC/N=c3\c4ccccc4nc4n3CCC4)n3c(nc2c1)CCC3 | 79 | 88 | 
CCCCC(=O)N(CCCCN=c1c2ccccc2nc2n1CCCCCC2)CCCN=c1c2ccccc2nc2n1CCCCCC2 | 1060 | 12.9 | 
CC(=O)NCC(=O)N(CCCCN=c1c2ccccc2nc2n1CCCCCC2)CCCN=c1c2ccccc2nc2n1CCCCCC2 | 75.6 | 122 | 
